In patent US6963769B1, “Method for enhancing contrast produced by MRI” (The United States of America as represented by the …, priority 1999, dated 2005):
“And” between values parts separate entries of the source, which are not always exact repeats. Equal entries are not always repeated. Structures can show the parent of a compound that is named as a salt. Where two headings read alike, the source gives them in different places.

Assays:
[1] = in vitro CEDST spectra of candidate contrast agents (proton chemical exchange with water), 7T; settings: for chemical shift of proton chemical exchange site (ΔωcA): relative to water
Protocol: Test compounds were dissolved in HPLC grade water at concentrations denoted in Table 1 with inorganic phosphate buffers to maintain pH.
CEDST spectra were acquired at 7T using a Bruker AC-300 wide bore spectrometer at 37° C. The observation frequency was set on the water peak and the decoupler was used to provide off-resonance saturation. Studies were conducted using a steady-state with irradiation (15 seconds) over a range of irradiation frequencies ±8.00 ppm from water. CEDST spectra were plotted in the form of water amplitude (Ms) versus irradiation frequency.
Several chemical reagents, including 5,6-dihydrouracil, 5-hydroxy-tryptophan, hydantoin, parabanic acid, sugars, amino acids, nucleosides, and imidazoles (Table 1), were tested for their ability to undergo proton chemical exchange detected using CEDST. Chemical shifts are reported relative to the water resonance. The spectral dependence of CEDST was determined by sweeping the irradiation frequency and while monitoring the water resonance.
Saturation depends on the B1 power and the irradiation offset frequency. The appropriate power was determined by increasing power until no further decrease in Ms was observed. […] Spin lattice relaxation time constants (T1) were obtained with inversion-recovery experiments. The range of inversion delays (Ti) was between 0.001 and 30 seconds, with a 30 second pre-delay.

[2] = cited from earlier work
[3] = pKa of the proton exchange site
[4] = MR images of phantoms, 4T GRE sequence with off-resonance saturation at ±850 Hz (5.00 ppm), difference image; format: physicochemical
Protocol: The results in FIG. 3 confirm those of FIG. 2. MR images of phantoms were collected on a custom-designed 4T system operating at room temperature (about 20° C.). The imaging sequence itself is a GRE (Gradient Recalled Echo) imaging sequence with an off-resonance saturation pulse centered at an offset of 5.00 ppm (850 Hz for the field at 4 Tesla). The other parameters used were: 90 degree flip angle used, TE (Echo time)=9 msec, TR (Repetition time)=1.2 sec, 16 Sinc pulses, followed by crusher gradients (which completely dephased the transverse magnetization). Four test tubes are shown in FIG. 3, with each containing a different solution. Three contained 62.5 mM barbituric acid at pH=7.4, 7.0, or 6.5. The fourth test tube contained 500 mM NH4Cl at pH=5.0. These test tubes were placed inside the 4T NMR imaging system, irradiated at ±850 Hz, and both control and experimental images were collected as described previously. FIG. 3 is the difference image generated by subtracting the experimental image from the control image. […] Therefore, the signals in these phantoms were generated due to proton chemical exchange with barbituric acid. The brightest signal in these phantoms (where the control and experimental image difference was the greatest) was generated by barbituric acid at pH=7.4.

[5] = cited from earlier work; remark: listed apart in the source
rabbit bladder = assay: in vivo CEDST MRI of rabbit bladder after intravenous barbituric acid, 4 Tesla; parameters: species or system New Zealand White rabbit
Protocol: This example describes the in vivo analysis of barbituric acid in a rabbit bladder. A male New Zealand White rabbit (1.5 kg, Hazelton Research Products, Denver Pa.) was initially anaesthetized with an intramuscular injection of a mixture of ketamine/acepromazaine (180 mg/2 mg), intubated and placed on a Siemens 900c ventilator (Siemens Medical Systems, Danvers Mass.). A catheter was placed in the marginal ear vein for infusion of intravenous fluids to maintain volume status. This catheter also was used to administer three doses of 50 mL barbituric acid solution (125 mM, pH=7.4, 20 mM phosphate buffer). Anesthesia was maintained with 2% isoflurane until sacrifice with 6 meq of KCl IV.
The rabbit was analyzed using a 4 Tesla magnet at the settings described in Example 1. The images were obtained after irradiation at the ppm offset characteristic of barbituric acid (5.25). […] The bladder and surrounding muscles are visible. This control image is collected to correct for the broad background of saturation transfer from macromolecules (i.e. proteins, lipids) located underneath the water signal. Guivel-Scharen et al., J. Magn. Reson., 133:36-45 (1998), herein incorporated by reference. […] This will irradiate the barbituric acid signal.
Following sacrifice of the rabbit, urine was collected and evaluated on the 7T system at 37° C. as described in Example 1. […] FIGS. 12-14 also confirm the identity of the metabolite imaged during the in vivo analysis.

[6] = sugars 250 mM, —OH protons, single pH 7.0, 37° C., 20 mM phosphate buffer
[7] = sugars 250 mM, —OH protons, single pH 7.0, 37° C., 20 mM phosphate buffer, saturation power 10.88 × 10^−7T
[8] = 62.5 mM, 37° C., 20 mM phosphate buffer, 10.88 × 10^−7T, at given ppm and pH
[9] = 125 mM, 37° C., 20 mM phosphate buffer, 10.88 × 10^−7T, at given ppm and pH
[10] = 125 mM, 37° C., 20 mM phosphate buffer, exchange site
[11] = 125 mM, 3-NH, 37° C., 2 mM phosphate buffer, 10.88 × 10^−7T, at listed pH
[12] = 62.5 mM, 37° C., 20 mM phosphate buffer, exchange site
[13] = imidazole derivatives, ring protons (—NH), concentration not given, 37° C., 20 mM phosphate buffer
[14] = 35 mM, —NH2, 37° C., 20 mM phosphate buffer, 10.88 × 10^−7T, at listed pH
[15] = 125 mM, guanidinium protons, single pH 7.0, 37° C., 20 mM phosphate buffer, 10.88 × 10^−7T

OC[C@H]1O[C@@](CO)(O[C@H]2O[C@H](CO)[C@@H](O)[C@H](O)[C@H]2O)[C@@H](O)[C@@H]1O [Sucrose]
ppm (relative to the resonant frequency of water) [1, 6]: 1.333 ppm
Mo − Ms (%) [1, 7]: 10.2%
Ms/Mo [1, 7]: 0.86

O=C1CNC(=O)N1 [Hydantoin]
Mo − Ms (%) [1, 8]: 18.7% and 21.3%
Ms/Mo [1, 8]: 0.81 and 0.78

NCCCC[C@H](N)C(=O)O [L-Lysine]
Mo − Ms (%) [1, 9]: 66.2%
Ms/Mo [1, 9]: 0.34
ppm (relative to the resonant frequency of water) [1, 10]: 3.000 ppm

O=c1ccn([C@@H]2O[C@H](CO)[C@@H](O)[C@H]2O)c(=O)[nH]1 [Uridine]
Ms/Mo [1, 11]: 0.65

C[C@H](N)C(=O)O [L-Alanine]
Mo − Ms (%) [1, 9]: 67.4%
Ms/Mo [1, 9]: 0.36
ppm (relative to the resonant frequency of water) [1, 10]: 3.000 ppm

O=C1CCNC(=O)N1 [5,6 Dihydrouracil]
Mo − Ms (%) [1, 8]: 22.2%
Ms/Mo [1, 8]: 0.78 and 0.77
ppm (relative to the resonant frequency of water) [1, 12]: 5.000 ppm and 2.667 ppm
chemical shift of proton chemical exchange site (ΔωcA) ([1]; running text, listed as 5,6-dihydro-uracil): 5.00 ppm and 2.67 ppm
chemical shift of proton chemical exchange site (ΔωcA) ([1]; running text, listed as 5,6-dihydrouracil): 5.0 ppm and 2.67 ppm
pKa of the 5.00 ppm site [2]: ~9.5

O=C1NCCN1 [2-Imidazolidone]
Mo − Ms (%) [1, 13]: 30.4% and 29.8%
Ms/Mo [1, 13]: 0.68
ppm (relative to the resonant frequency of water) [1, 13]: 1.167 ppm

CCC1(CC)C(=O)NC(=O)NC1=O [Barbital (5,5-Diethyl-Barbituric Acid), 5,5-Diethyl-Barbituric Acid]
Mo − Ms (%) [1, 8]: 14.2%
Ms/Mo [1, 8]: 0.82
ppm (relative to the resonant frequency of water) [1, 12]: 5.000 ppm
pKa [3]: 7

O=C1NC(=O)C(=O)N1 [Parabanic Acid]
Mo − Ms (%) [1, 8]: 20.5% and 25.4% and 22.5%
Ms/Mo [1, 8]: 0.79 and 0.74 and 0.77

Cl.N [NH4Cl, reference compound]
enhancement in difference image of phantoms [4]: neither the surrounding water nor the NH4Cl control were significantly affected

O=C1CC(=O)NC(=S)N1 [2-Thio-Barbituric Acid]
Mo − Ms (%) [1, 8]: 35.3%
Ms/Mo [1, 8]: 0.65
ppm (relative to the resonant frequency of water) [1, 12]: 6.333 ppm
chemical shift of proton chemical exchange site (ΔωcA) [1]: 6.33 ppm

N[C@@H](Cc1c[nH]c2ccccc12)C(=O)O [L-Tryptophan]
ppm (relative to the resonant frequency of water) ([1]; 35 mM, —NH2, 37° C., 20 mM phosphate buffer): 2.000 ppm
Mo − Ms (%) [1, 14]: 12.2%
Ms/Mo [1, 14]: 0.89

O=C(O)C1CCCCN1 (stereo not shown) [Pipecolinic Acid]
Mo − Ms (%) [1, 8]: 19.3%
Ms/Mo [1, 8]: 0.81
ppm (relative to the resonant frequency of water) [1, 12]: 3.33 ppm

O=C[C@H](O)[C@@H](O)[C@@H](O)[C@H](O)CO [Galactose]
ppm (relative to the resonant frequency of water) [1, 6]: 1.167 ppm
Mo − Ms (%) [1, 7]: 10.3%
Ms/Mo [1, 7]: 0.85

NC(=O)CC[C@H](N)C(=O)O [L-Glutamine]
Mo − Ms (%) [1, 9]: 27.6%
Ms/Mo [1, 9]: 0.70
ppm (relative to the resonant frequency of water) [1, 10]: 2.000 ppm

N[C@@H](Cc1c[nH]c2ccc(O)cc12)C(=O)O [5-Hydroxy-Tryptophan]
Ms/Mo [1, 8]: 0.57 and 0.79
ppm (relative to the resonant frequency of water) [1, 12]: 2.833 ppm and 5.333 ppm
chemical shift of proton chemical exchange site (ΔωcA) [1]: 5.33 ppm and 2.83 ppm
chemical shift of proton chemical exchange site (ΔωcA) ([1]; listed as 5-HT): 5.33 ppm

N=C(N)N [Guanidine HCl]
ppm (relative to the resonant frequency of water) ([1]; 125 mM, guanidinium protons, single pH 7.0, 37° C., 20 mM phosphate buffer): 2.000 ppm
Mo − Ms (%) [1, 15]: 60.0%
Ms/Mo [1, 15]: 0.38

OC[C@@H](O)[C@@H](O)[C@H](O)[C@H](O)CO [Mannitol]
ppm (relative to the resonant frequency of water) [1, 6]: 1.000 ppm
Mo − Ms (%) [1, 7]: 9.0%
Ms/Mo [1, 7]: 0.89

O=C(CO)[C@@H](O)[C@H](O)[C@H](O)CO [Fructose]
ppm (relative to the resonant frequency of water) [1, 6]: 1.333 ppm
Mo − Ms (%) [1, 7]: 9.3%
Ms/Mo [1, 7]: 0.88

O=C1CC(=O)NC(=O)N1 [Barbituric Acid]
Mo − Ms (%) [1, 8]: 32.5%
Ms/Mo [1, 8]: 0.68
ppm (relative to the resonant frequency of water) [1, 12]: 5.000 ppm
chemical shift of proton chemical exchange site (ΔωcA) [1]: 5.00 ppm
pKa [3]: 12
enhancement in difference image of phantoms ([4]; 4T, about 20° C., irradiated at ±850 Hz, barbituric acid 62.5 mM pH 7.4, 7.0, 6.5, NH4Cl 500 mM pH 5.0): enhanced
Oral dosage toxicity, LD50 [5]: > 5000 mg/kg
physiological response to the injection (rabbit bladder; intravenous, 125 mM solution): physiologically unaltered (i.e. no change in blood pressure)
time to reach the kidneys (rabbit bladder; intravenous, 50 mL doses of 125 mM solution, pH 7.4): ≤ 20 min
location of signal remaining in the in vivo difference image (rabbit bladder; irradiation ±900 Hz (5.25 ppm/4T)): is in the bladder, not in the muscle or other tissues

OC[C@@H](O)[C@@H](O)[C@H](O)[C@@H](O)CO [Sorbitol]
ppm (relative to the resonant frequency of water) [1, 6]: 1.000 ppm
Mo − Ms (%) [1, 7]: 7.3%
Ms/Mo [1, 7]: 0.88

O=C(O)C1CCN1 (stereo not shown) [Azetidine-2-Carboxylic Acid]
Mo − Ms (%) [1, 8]: 25.5%
Ms/Mo [1, 8]: 0.74
ppm (relative to the resonant frequency of water) [1, 12]: 3.50 ppm

Cc1cn([C@H]2C[C@H](O)[C@@H](CO)O2)c(=O)[nH]c1=O [Thymidine]
ppm (relative to the resonant frequency of water) ([1]; 125 mM, 3-NH, 37° C., 2 mM phosphate buffer): 6.333 ppm
Mo − Ms (%) [1, 11]: 34.8%
Ms/Mo [1, 11]: 0.65
